Experimental data: BindingDB's records for doi:10.1016/j.ejmech.2015.12.016 (Shenyang Pharmaceutical University, 2016)

What was measured:
[1] = Inhibition of c-Met (unknown origin) by tumor cell growth inhibition assay
[2] = Inhibition of VEGFR-1 (unknown origin) by tumor cell growth inhibition assay
[3] = Inhibition of VEGFR-2 (unknown origin) by tumor cell growth inhibition assay
[4] = Inhibition of VEGFR-3 (unknown origin) by tumor cell growth inhibition assay

For Cn1ccnc1-c1cc2c(Oc3ccc(NC(=S)NC(=O)Cc4ccccc4)cc3F)ccnc2s1, the IC50 [1] was 1 nM, the IC50 [2] was 3 nM and the IC50 [3] was 3 nM. The IC50 [4] was 4 nM.
